The source of these data is ChEMBL document CHEMBL3045771, “Structure-Activity Relationships of Enantiomers of the Azole Fungicide Ipconazole and Its Related Compounds” (1998).

Format in all cases: functional
The subject of one assay is Colletotrichum lagenaria. Put plainly: Antifungal activity against Colletotrichum lagenaria on potato sucrose agar medium at 28 or 20 degC for 2 or 3 days.
A further assay relates to Monilinia fructicola. Put plainly: Antifungal activity against Monilinia fructicola on potato sucrose agar medium at 28 or 20 degC for 2 or 3 days.
The test system of a further assay is Pyricularia oryzae. Put plainly: Antifungal activity against Magnaporthe oryzae on potato sucrose agar medium at 28 or 20 degC for 2 or 3 days.
The next assay relates to Sclerotinia sclerotiorum. Briefly: Antifungal activity against Sclerotinia sclerotiorum on potato sucrose agar medium at 28 or 20 degC for 2 or 3 days.
A further assay relates to Triticum aestivum. Put plainly: Inhibition of Triticum aestivum (wheat) Nourin 64 growth assessed as first leaf sheath length of seedlings measured as growth rate at 125 ug/ml for 24 hr relative to control. Details: scale not given: the % may be the effect or the level left.
The next assay relates to Bipolaris oryzae. Briefly: Antifungal activity against Bipolaris oryzae on potato sucrose agar medium at 28 or 20 degC for 2 or 3 days.
Assay [1] relates to Colletotrichum gloeosporioides. Briefly: Antifungal activity against Glomerella cingulata on potato sucrose agar medium at 28 or 20 degC for 2 or 3 days.
A further assay concerns Alternaria mali. Briefly: Antifungal activity against Alternaria mali on potato sucrose agar medium at 28 or 20 degC for 2 or 3 days.
Another assay relates to Rhizoctonia solani. Put plainly: Antifungal activity against Rhizoctonia solani on potato sucrose agar medium at 28 or 20 degC for 2 or 3 days.
A further assay deals with Fusarium fujikuroi. Briefly: Antifungal activity against Fusarium fujikuroi on potato sucrose agar medium at 28 or 20 degC for 2 or 3 days.
For assay [2], the system named is Fusarium oxysporum f. sp. cucumerinum. Briefly: Antifungal activity against Fusarium oxysporum f. sp. cucumerinum on potato sucrose agar medium at 28 or 20 degC for 2 or 3 days.
A further assay deals with Cercospora beticola. Put plainly: Antifungal activity against Cercospora beticola on potato sucrose agar medium at 28 or 20 degC for 2 or 3 days.
A further assay has as its system Botrytis cinerea. Put plainly: Antifungal activity against Botryotinia fuckeliana on potato sucrose agar medium at 28 or 20 degC for 2 or 3 days.
A further assay relates to Cucumis sativus. Briefly: Inhibition of Cucumis sativus (cucumber) growth assessed as stem length of first leaf of seedlings measured as growth rate at 125 ug/ml for 24 hr relative to control. Also on record: scale not given: the % may be the effect or the level left.

Values after ≈ are worked out from the molar mass of the structure shown. Some results are limits rather than exact numbers.

Broadly, the MIC is the least concentration at which growth counts as inhibited.

`O[C@]1(Cn2cncn2)CCC[C@@H]1Cc1ccc(Cl)cc1`: the minimum inhibitory concentration (MIC) was greater than 100 µg/mL with Colletotrichum lagenaria; less than 0.2 µg/mL in the assay with Monilinia fructicola; 6.3 µg/mL (≈ 21.6 µM) with Pyricularia oryzae; 13 µg/mL (≈ 44.6 µM) in the assay with Sclerotinia sclerotiorum; 25 µg/mL (≈ 85.7 µM) against Bipolaris oryzae; 25 µg/mL (≈ 85.7 µM) in [1]. In addition, the MIC with Alternaria mali is greater than 100 µg/mL; in the assay on Rhizoctonia solani, greater than 100 µg/mL; in the assay on Fusarium fujikuroi it was 13 µg/mL (≈ 44.6 µM); in assay [2] it was greater than 100 µg/mL; with Cercospora beticola it was greater than 100 µg/mL; in the assay with Botrytis cinerea it was 3.1 µg/mL (≈ 10.6 µM). Further, the Activity came to 41% in the assay with Triticum aestivum and 80% with Cucumis sativus.
Regarding `CC(C)[C@@H]1CC[C@H](Cc2ccc(Cl)cc2)[C@@]1(O)Cn1cncn1`, the MIC against Colletotrichum lagenaria was 0.8 µg/mL (≈ 2.4 µM); with Monilinia fructicola, less than 0.2 µg/mL; against Pyricularia oryzae, 3.1 µg/mL (≈ 9.29 µM); with Sclerotinia sclerotiorum, less than 0.2 µg/mL; against Bipolaris oryzae it was 13 µg/mL (≈ 38.9 µM); in assay [1], 1.6 µg/mL (≈ 4.79 µM). Further, the minimal inhibitory concentration (MIC) came to 6.3 µg/mL (≈ 18.9 µM) against Alternaria mali; 13 µg/mL (≈ 38.9 µM) in the assay with Rhizoctonia solani; 0.2 µg/mL (≈ 0.599 µM) against Fusarium fujikuroi; 3.1 µg/mL (≈ 9.29 µM) in assay [2]; 25 µg/mL (≈ 74.9 µM) with Cercospora beticola; 0.2 µg/mL (≈ 0.599 µM) in the assay with Botrytis cinerea. Also, the Activity is on record as 105% with Triticum aestivum and 118% with Cucumis sativus.
For the compound `CC(C)[C@H]1CC[C@@H](Cc2ccc(Cl)cc2)[C@]1(O)Cn1cncn1`, the minimum inhibitory concentration (MIC) with Colletotrichum lagenaria is greater than 100 µg/mL; against Monilinia fructicola, less than 0.2 µg/mL; in the assay on Pyricularia oryzae, 100 µg/mL (≈ 300 µM); against Sclerotinia sclerotiorum, 50 µg/mL (≈ 150 µM); against Bipolaris oryzae, 50 µg/mL (≈ 150 µM); in assay [1] it was 25 µg/mL (≈ 74.9 µM). Also, the MIC in the assay with Alternaria mali was greater than 100 µg/mL; against Rhizoctonia solani, 100 µg/mL (≈ 300 µM); with Fusarium fujikuroi, greater than 100 µg/mL; in [2], greater than 100 µg/mL; with Cercospora beticola it was greater than 100 µg/mL; against Botrytis cinerea, 25 µg/mL (≈ 74.9 µM). Also, the Activity in the assay on Triticum aestivum is listed as 109%; in the assay with Cucumis sativus, 117%.
On to `O[C@@]1(Cn2cncn2)CCC[C@H]1Cc1ccc(Cl)cc1`, for which the MIC against Colletotrichum lagenaria was greater than 100 µg/mL; against Monilinia fructicola it was 13 µg/mL (≈ 44.6 µM); in the assay on Pyricularia oryzae, 100 µg/mL (≈ 343 µM); against Sclerotinia sclerotiorum, greater than 100 µg/mL; in the assay with Bipolaris oryzae it was greater than 100 µg/mL; in assay [1], greater than 100 µg/mL. Also, the MIC (in the assay with Alternaria mali; against Rhizoctonia solani; against Fusarium fujikuroi; in assay [2]; with Cercospora beticola; with Botrytis cinerea) was greater than 100 µg/mL each time. Further, the values for the Activity in the assay with Triticum aestivum and in the assay with Cucumis sativus were 94% and 90%, respectively.
On to `C[C@H]1CC[C@@H](Cc2ccc(Cl)cc2)[C@]1(O)Cn1cncn1`, for which the MIC in the assay with Colletotrichum lagenaria is greater than 100 µg/mL; against Monilinia fructicola it was 13 µg/mL (≈ 42.5 µM); in the assay on Pyricularia oryzae, 50 µg/mL (≈ 164 µM); against Sclerotinia sclerotiorum, greater than 100 µg/mL; against Bipolaris oryzae, greater than 100 µg/mL; in assay [1] it was greater than 100 µg/mL. In addition, the MIC with Alternaria mali was greater than 100 µg/mL; against Rhizoctonia solani, greater than 100 µg/mL; in the assay on Fusarium fujikuroi it was greater than 100 µg/mL; in assay [2], greater than 100 µg/mL; in the assay on Cercospora beticola, greater than 100 µg/mL; with Botrytis cinerea, 100 µg/mL (≈ 327 µM). For the same compound, the Activity with Triticum aestivum came out at 92%; in the assay on Cucumis sativus, 97%.
As to `C[C@@H]1CC[C@H](Cc2ccc(Cl)cc2)[C@@]1(O)Cn1cncn1`, the MIC in the assay with Colletotrichum lagenaria was 100 µg/mL (≈ 327 µM); against Monilinia fructicola, less than 0.2 µg/mL; in the assay on Pyricularia oryzae, 3.1 µg/mL (≈ 10.1 µM); in the assay on Sclerotinia sclerotiorum, 3.1 µg/mL (≈ 10.1 µM); in the assay with Bipolaris oryzae, 25 µg/mL (≈ 81.8 µM); in assay [1], 13 µg/mL (≈ 42.5 µM). Besides, the MIC is greater than 100 µg/mL in the assay with Alternaria mali; greater than 100 µg/mL against Rhizoctonia solani; 3.1 µg/mL (≈ 10.1 µM) against Fusarium fujikuroi; greater than 100 µg/mL in assay [2]; greater than 100 µg/mL against Cercospora beticola; 3.1 µg/mL (≈ 10.1 µM) in the assay on Botrytis cinerea. Also, the Activity in the assay with Triticum aestivum came out at 38%; in the assay with Cucumis sativus, 43%.
Turning to `CC[C@H]1CC[C@@H](Cc2ccc(Cl)cc2)[C@]1(O)Cn1cncn1`, the MIC was determined as 50 µg/mL (≈ 156 µM) against Colletotrichum lagenaria; 1.6 µg/mL (≈ 5 µM) against Monilinia fructicola; 25 µg/mL (≈ 78.2 µM) with Pyricularia oryzae; 100 µg/mL (≈ 313 µM) in the assay on Sclerotinia sclerotiorum; 50 µg/mL (≈ 156 µM) with Bipolaris oryzae; 25 µg/mL (≈ 78.2 µM) in assay [1]. Besides, the MIC in the assay with Alternaria mali is greater than 100 µg/mL; in the assay with Rhizoctonia solani, 100 µg/mL (≈ 313 µM); against Fusarium fujikuroi, greater than 100 µg/mL; in [2], greater than 100 µg/mL; in the assay on Cercospora beticola it was greater than 100 µg/mL; in the assay with Botrytis cinerea, 25 µg/mL (≈ 78.2 µM). The results for the Activity in the assay on Triticum aestivum and with Cucumis sativus were 77% and 98%, respectively.
Take `CC[C@@H]1CC[C@H](Cc2ccc(Cl)cc2)[C@@]1(O)Cn1cncn1`: the MIC is 1.6 µg/mL (≈ 5 µM) in the assay on Colletotrichum lagenaria; less than 0.2 µg/mL in the assay on Monilinia fructicola; 3.1 µg/mL (≈ 9.69 µM) against Pyricularia oryzae; 0.8 µg/mL (≈ 2.5 µM) against Sclerotinia sclerotiorum; 25 µg/mL (≈ 78.2 µM) against Bipolaris oryzae; 0.4 µg/mL (≈ 1.25 µM) in assay [1]. The MIC with Alternaria mali was 25 µg/mL (≈ 78.2 µM); in the assay on Rhizoctonia solani it was 100 µg/mL (≈ 313 µM); against Fusarium fujikuroi it was less than 0.2 µg/mL; in [2], 6.3 µg/mL (≈ 19.7 µM); with Cercospora beticola, 50 µg/mL (≈ 156 µM); with Botrytis cinerea, 0.8 µg/mL (≈ 2.5 µM). Besides, the Activity in the assay with Triticum aestivum is reported as 104%; in the assay on Cucumis sativus, 100%.
Consider `CC[C@@H]1CC[C@@H](Cc2ccc(Cl)cc2)[C@]1(O)Cn1cncn1`, for which the MIC is 100 µg/mL (≈ 313 µM) with Colletotrichum lagenaria; 0.4 µg/mL (≈ 1.25 µM) in the assay with Monilinia fructicola; 13 µg/mL (≈ 40.6 µM) against Pyricularia oryzae; 25 µg/mL (≈ 78.2 µM) against Sclerotinia sclerotiorum; 25 µg/mL (≈ 78.2 µM) against Bipolaris oryzae; 13 µg/mL (≈ 40.6 µM) in assay [1]. The MIC in the assay on Alternaria mali was 100 µg/mL (≈ 313 µM); with Rhizoctonia solani it was 100 µg/mL (≈ 313 µM); in the assay with Fusarium fujikuroi, 25 µg/mL (≈ 78.2 µM); in assay [2] it was greater than 100 µg/mL; in the assay on Cercospora beticola, 50 µg/mL (≈ 156 µM); in the assay with Botrytis cinerea it was 13 µg/mL (≈ 40.6 µM). Besides, the Activity in the assay on Triticum aestivum is 69%; in the assay with Cucumis sativus it was 110%.
On to `CC[C@H]1CC[C@H](Cc2ccc(Cl)cc2)[C@@]1(O)Cn1cncn1`, for which the MIC was 3.1 µg/mL (≈ 9.69 µM) against Colletotrichum lagenaria; less than 0.2 µg/mL with Monilinia fructicola; 1.6 µg/mL (≈ 5 µM) with Pyricularia oryzae; less than 0.2 µg/mL against Sclerotinia sclerotiorum; 6.3 µg/mL (≈ 19.7 µM) against Bipolaris oryzae; less than 0.2 µg/mL in assay [1]. Besides, the MIC in the assay on Alternaria mali was 1.6 µg/mL (≈ 5 µM); against Rhizoctonia solani, 50 µg/mL (≈ 156 µM); with Fusarium fujikuroi, less than 0.2 µg/mL; in [2], 1.6 µg/mL (≈ 5 µM); with Cercospora beticola, 1.6 µg/mL (≈ 5 µM); against Botrytis cinerea it was less than 0.2 µg/mL. The Activity in the assay on Triticum aestivum came to 100%; with Cucumis sativus it was 123%.
Consider `CCC[C@H]1CC[C@@H](Cc2ccc(Cl)cc2)[C@]1(O)Cn1cncn1`, for which the MIC was greater than 100 µg/mL against Colletotrichum lagenaria; 13 µg/mL (≈ 38.9 µM) against Monilinia fructicola; 50 µg/mL (≈ 150 µM) against Pyricularia oryzae; greater than 100 µg/mL with Sclerotinia sclerotiorum; 100 µg/mL (≈ 300 µM) in the assay on Bipolaris oryzae; greater than 100 µg/mL in assay [1]. In addition, the MIC in the assay with Alternaria mali is greater than 100 µg/mL; against Rhizoctonia solani, 100 µg/mL (≈ 300 µM); in the assay with Fusarium fujikuroi, greater than 100 µg/mL; in assay [2], greater than 100 µg/mL; in the assay with Cercospora beticola it was greater than 100 µg/mL; against Botrytis cinerea, 50 µg/mL (≈ 150 µM). For the same compound, the Activity in the assay with Triticum aestivum came to 97%; in the assay with Cucumis sativus it was 104%.
`CCC[C@@H]1CC[C@H](Cc2ccc(Cl)cc2)[C@@]1(O)Cn1cncn1`: the MIC in the assay with Colletotrichum lagenaria stood at 50 µg/mL (≈ 150 µM); against Monilinia fructicola it was 0.4 µg/mL (≈ 1.2 µM); in the assay on Pyricularia oryzae, 6.3 µg/mL (≈ 18.9 µM); against Sclerotinia sclerotiorum, 3.1 µg/mL (≈ 9.29 µM); in the assay with Bipolaris oryzae it was 25 µg/mL (≈ 74.9 µM); in [1], 3.1 µg/mL (≈ 9.29 µM). Moreover, the MIC in the assay with Alternaria mali was greater than 100 µg/mL; in the assay with Rhizoctonia solani, 100 µg/mL (≈ 300 µM); against Fusarium fujikuroi, 1.6 µg/mL (≈ 4.79 µM); in [2], 6.3 µg/mL (≈ 18.9 µM); with Cercospora beticola, 100 µg/mL (≈ 300 µM); in the assay on Botrytis cinerea, 1.6 µg/mL (≈ 4.79 µM). In addition, the Activity with Triticum aestivum is on record as 102%; in the assay on Cucumis sativus, 110%.
